From patent US10766888B1, “HMOX1 inducers” (Mitobridge Inc., priority 2019, dated 2020)
Converted amounts (≈) assume the structure as drawn. Where two headings read alike, the source gives them in different places.

What was measured:
hERG channel = hERG channel (Homo sapiens, UniProt Q12809); experiment: hERG manual patch clamp assay; type: cell-based; details: HEK 293 cells stably expressing hERG channel, pH 7.35, 10 μM compound
Protocol: Cell Lines and Cell Culture
HEK 293 cell line stably expressing hERG channel (Cat # K1236) was purchased from Invitrogen. The cells were cultured in 85% DMEM, 10% dialyzed FBS, 0.1 mM NEAA, 25 mM HEPES, 100 U/mL Penicillin-Streptomycin and 5 μg/mL Blasticidin and 400 μg/mL Geneticin. Cells were split using TrypLE™ Express about three times a week, and maintained between ˜40% to ˜80% confluence. Before the assay, the cells were transferred onto the coverslips at 5×10^5 cells/per 6 cm cell culture dish and induced with doxycycline at 1 μg/mL for 48 hours.
• 1) External solution (in mM): 132 NaCl, 4 KCl, 3 CaCl2, 0.5 MgCl2, 11.1 glucose, and 10 HEPES (pH adjusted to 7.35 with NaOH) • 2) Internal solution (in mM): 140 KCl, 2 MgCl2, 10 EGTA, 10 HEPES and 5 MgATP (pH adjusted to 7.35 with KOH) • 3) hERG currents were tested in presence of 10 μM compound concentration with final concentration of DMSO of 0.1%. Experimental Procedure • 1) Removed the coverslip from the cell culture dish and placed it on the microscope stage in bath chamber. • 2) Located a desirable cell using the 10× objective. Located the tip of the electrode under the microscope using the 10× objective by focusing above the plane of the cells. Once the tip was in focus, advanced the electrode downwards towards the cell using the coarse controls of the manipulator, while simultaneously moving the objective to keep the tip in focus. • 3) When directly over the cell, switched to the 40× objective and used the fine controls of the manipulator to approach the surface of the cell in small steps. • 4) Applied gentle suction through the side-port of the electrode holder to form a gigaohm seal. • 5) Used the Cfast to remove the capacity current that was in coincidence with the voltage step. Obtained the whole cell configuration by applying repetitive, brief, strong suction until the membrane patch ruptured. • 6) Set membrane potential to −60 mV at this point to ensure that hERG channels were not • open. The spikes of capacity current should then be cancelled using the Cslow on the amplifier. 7) Set holding potential to −90 mV for 500 ms; recorded current at 50 kHz and filtered at 10 kHz. Leaking current was tested at −80 mV for 500 ms. • 8) The hERG current was elicited by depolarizing at +30 mV for 4.8 seconds and then the voltage was taken back to −50 mV for 5.2 seconds to remove the inactivation and observe the deactivating tail current. The maximum amount of tail current size was used to determine hERG current amplitude. • 9) Recorded current for 120 seconds to assess the current stability. Only stable cells with recording parameters above threshold were applied for the compound administrations. • 10) Firstly vehicle control was applied to the cells to establish the baseline. […] In order to ensure the good performance of cultured cells and operations, the positive control, Dofetilide, with 5 dose concentration was also used to test the same batch of cells. Data Analysis
The following criteria were used to determine data acceptability. • 1) Initial seal resistance >1 GΩ; • 2) Leak currents <50% of the control peak tail currents at any time; • 3) The peak tail amplitude >250 pA; • 4) Membrane resistance Rm>500 MΩ; • 5) Access resistance (Ra)<10 MΩ; • 6) Apparent run-down of peak current <2.5% per min.
Data that met the above criteria for hERG current quality were further analyzed as the following steps. • 1) Percent hERG current inhibition was calculated using the following equation. • Note: PatchMaster or Clampfit software was used to extract the peak current from the original data.
[formula] • 2) The dose response curve of test compounds was plotted with percentage of hERG current inhibition against the concentration of test compounds using Graphpad Prism 6.0, and fit to a sigmoid dose-response curve with a variable slope.

[1] = tested on: Human Heme Oxygenase-1 (HMOX-1); experiment: ELISA assay to measure human heme oxygenase-1 (HMOX-1) in HepG2 lysate; type: cell-based
Method in brief: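 Treated HepG2 cells were lysed in PBS with 0.5% Triton X100, 1 mM EDTA and protease inhibitors, and lysates were diluted 1:20. HO-1 was measured by sandwich ELISA (biotinylated detection antibody, streptavidin-HRP, chemiluminescence) at room temperature against a standard curve from 20 ng/ml. EC50 and fold change were expressed relative to DMSO control.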

[2] = PD study: compound concentration in mouse liver; type: in vivo, C57BL/6 mice; details: male, C57BL/6, mouse, 50 mg/kg, 50 mpk oral; for concentration at 3 h: read-out: Liver Conc uM (3 h); for concentration at 6 h: read-out: Liver Conc uM (6 h)
Protocol: 9-10 week old male C57BL/6 mice were dosed orally with 50 mg/kg of vehicle or compound formulated in 5% w/v tween 80 and 0.5% methyl cellulose. At indicated time points (3 and 6 hours or or 4 and 8 hours post-dosing as shown in the results below), whole blood was collected, animal was sacrificed and liver was collected. Blood samples were transferred to vials containing 4 μL of 10% w/v EDTA, centrifuged at 6000 rpm for 8 in below 10° C. to obtain plasma. Samples were frozen and later processed for HMOX1 protein levels as indicated below: […]

Human BACH1 = molecular target: T1, Human BACH1 (Homo sapiens, UniProt O14867); experiment: Microscale thermophoresis (MST) assay / Bach 1 binding assay; details: 10 nM fluorescently labeled BACH1(aa179-736), 25° C.
T1 construct: 10×HIS-GP-BACH1(aa179-736)-Thrombin-FLAG; 10xHis (N); GP linker (Gly-Pro) (N); Thrombin cleavage site (C); FLAG (C); host or cells: Sf9 insect cells
T1 sequence (O14867 179-736): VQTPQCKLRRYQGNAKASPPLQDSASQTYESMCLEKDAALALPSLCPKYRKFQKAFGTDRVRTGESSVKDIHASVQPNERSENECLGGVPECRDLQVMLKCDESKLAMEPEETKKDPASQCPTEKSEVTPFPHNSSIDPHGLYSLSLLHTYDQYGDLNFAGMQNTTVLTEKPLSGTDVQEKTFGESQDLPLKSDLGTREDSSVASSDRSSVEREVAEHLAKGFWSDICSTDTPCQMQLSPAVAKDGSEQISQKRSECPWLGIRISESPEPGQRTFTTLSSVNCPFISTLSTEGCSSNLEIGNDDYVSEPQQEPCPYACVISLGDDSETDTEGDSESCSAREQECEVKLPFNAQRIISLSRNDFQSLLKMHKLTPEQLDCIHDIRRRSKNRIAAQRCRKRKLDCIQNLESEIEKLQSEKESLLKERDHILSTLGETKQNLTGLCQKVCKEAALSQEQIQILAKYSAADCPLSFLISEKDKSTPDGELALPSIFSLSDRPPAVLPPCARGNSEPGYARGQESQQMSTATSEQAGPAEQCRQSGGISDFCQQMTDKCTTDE
Protocol: Example 146. Microscale Thermophoresis (MST) Assay/Bach 1 Binding Assay
Outline of Protein Expression/Production
Human BACH1 (construct-ID: 10×HIS-GP-BACH1(aa179-736)-Thrombin-FLAG) was expressed in Sf9 insect cells. Protein purification was performed using affinity chromatography, followed by size-exclusion chromatography. Quality of resulting protein was judged using SDS-PAGE analysis.
The MST technology is based on measurement of protein movement along a temperature gradient. Thereby, fluorescently labeled protein is loaded into capillaries, where an infrared laser heats a small volume. Before and during heating, fluorescent intensity is measured at the site of irradiation and the loss of fluorescence in the IR laser focus is quantified.
Two major factors contribute to change of fluorescence signal. First of all, the so-called TRIC (Temperature Related Intensity Change) effect is caused by the temperature-dependency of fluorophore's quantum yield. Herein, the extent of the temperature dependence depends on the chemical environment, which may be changed by the binding of a ligand (e.g. compound, peptide) to the target. Moreover, Kd value between ligand and target can depend on temperature. Second, thermophoresis, which is defined as movement of fluorescent molecules along temperature gradient, is a major contributor to change of fluorescence. Hereby, protein movement along the gradient depends on hydrodynamic radius, charge and hydration shell. These properties can change upon association of the labeled protein with another species, e.g. compound. Thereby, MST detects the differences in protein movement with increasing ligand concentration: from this, the fraction of ligand bound protein and a Kd value can be determined.
For Kd determination of compounds binding BACH1, the following protocol was applied: 10×HIS-GP-BACH1(aa179-736)-Thrombin-FLAG (expressed and purified at Proteros) was fluorescently labeled via its lysine-residues (2nd gen NHS-NT.647 dye).
Experiments were performed using the experimental device Monolith NT.115 Pico, NanoTemper Technologies, with MST power set to medium and excitation power set to 2% at a reaction temperature of 25° C.
10 nM fluorescently labeled BACH1 was applied to reaction buffer containing 50 mM HEPES pH 8.0, 100 mM NaCl, 5% glycerol, 0.05% Tween20 and 1 mM DTT in a reaction volume of 8 μL using Monolith NT.115 Premium Capillaries. Compounds were applied at a maximal concentration of 103 μM with 15 subsequent factor 2 dilutions.

Kinetic solubility = type: physicochemical; details: Dulbecco's phosphate buffer saline (DPBS), aqueous buffer, kinetic from dmso stock, DPBS pH 7.4, 25° C., 200 μM test compound
Method in brief: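 Compound from 10 mM DMSO stock diluted to 200 μM final in DPBS pH 7.4 and, separately, in DMSO, in duplicate. Shaken 16 h at 25 °C, then centrifuged 20 min at 25 °C. Supernatant analysed by HPLC.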

[3] = HepG2, human HMOX1, as listed in Table 5, read-out: HMOX1 EC50 h
[4] = human HMOX1 protein level in HepG2 lysate, * = average of 2 or more EC50 determinations, NA = Not Active, read-out: EC50

Sequence of hERG channel (Q12809 whole entry): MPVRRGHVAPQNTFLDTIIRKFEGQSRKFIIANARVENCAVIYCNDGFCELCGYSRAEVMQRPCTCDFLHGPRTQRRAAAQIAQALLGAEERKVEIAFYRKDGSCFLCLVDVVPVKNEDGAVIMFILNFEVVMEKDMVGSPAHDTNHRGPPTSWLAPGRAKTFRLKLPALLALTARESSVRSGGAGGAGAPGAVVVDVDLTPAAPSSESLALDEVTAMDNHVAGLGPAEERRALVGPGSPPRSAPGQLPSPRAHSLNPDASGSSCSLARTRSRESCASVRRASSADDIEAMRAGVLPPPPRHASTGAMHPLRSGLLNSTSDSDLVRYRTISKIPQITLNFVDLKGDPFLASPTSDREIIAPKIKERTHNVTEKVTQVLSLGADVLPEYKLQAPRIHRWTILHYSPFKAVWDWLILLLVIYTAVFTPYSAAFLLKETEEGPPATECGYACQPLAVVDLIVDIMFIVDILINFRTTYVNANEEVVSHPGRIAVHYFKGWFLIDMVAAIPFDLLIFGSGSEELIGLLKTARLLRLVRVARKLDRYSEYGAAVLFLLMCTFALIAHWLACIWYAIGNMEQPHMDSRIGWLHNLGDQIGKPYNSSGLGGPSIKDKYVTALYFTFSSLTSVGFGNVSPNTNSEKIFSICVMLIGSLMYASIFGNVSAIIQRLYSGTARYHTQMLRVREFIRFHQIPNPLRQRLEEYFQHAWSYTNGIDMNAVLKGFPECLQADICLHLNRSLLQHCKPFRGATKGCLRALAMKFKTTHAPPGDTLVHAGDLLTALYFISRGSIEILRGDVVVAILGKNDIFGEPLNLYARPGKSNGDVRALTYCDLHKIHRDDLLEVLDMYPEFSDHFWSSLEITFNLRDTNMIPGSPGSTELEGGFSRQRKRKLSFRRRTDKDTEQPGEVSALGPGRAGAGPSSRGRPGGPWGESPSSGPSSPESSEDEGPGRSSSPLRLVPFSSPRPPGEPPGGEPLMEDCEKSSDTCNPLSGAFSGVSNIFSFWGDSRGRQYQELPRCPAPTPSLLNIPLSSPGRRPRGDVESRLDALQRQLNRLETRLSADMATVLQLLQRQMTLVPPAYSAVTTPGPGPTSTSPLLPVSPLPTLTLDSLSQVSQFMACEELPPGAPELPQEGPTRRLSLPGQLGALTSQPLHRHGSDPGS

| EC50 [1, 3] [nM] | EC50 [1, 4] [nM] | concentration at 3 h [2] [µM] | concentration at 6 h [2] [µM] | Kd (Human BACH1) [nM] | solubility at 16 h (Kinetic solubility) [µM] | SMILES | inhibition at 10 µM (hERG channel) [%] |
| --- | --- | --- | --- | --- | --- | --- | --- |
| 2000 | 1300 | 217 | 162 |  |  | Cn1c(Nc2nc3ccc(OC(F)(F)F)cc3o2)nc2cc(C(=O)O)ccc21 [Example 44, 1-methyl-2-((6-(trifluoromethoxy)benzo[d]oxazol-2-yl)amino)-1H-benzo[d]imidazole-5-carboxylic acid] | 15 |
|  | 300 |  |  | 260 | 0.9 (≈ 0.377 µg/mL) | Cn1c(Nc2nc3ccc(C(F)(F)F)cc3o2)nc2cc(C(=O)NCCO)ccc21 [Example 33, N-(2-hydroxyethyl)-1-methyl-2-((6-(trifluoromethyl)benzo[d]oxazol-2-yl)amino)-1H-benzo[d]imidazole-5-carboxamide] |  |
|  | 200 |  |  | 200 | < 2 | COCCONC(=O)c1ccc2c(c1)nc(Nc1nc3ccc(C(F)(F)F)cc3o1)n2C [Example 124, N-(2-methoxyethoxy)-1-methyl-2-((6-(trifluoromethyl)benzo[d]oxazol-2-yl)amino)-1H-benzo[d]imidazole-5-carboxamide] |  |
| 1900 | 1900 | 63 | 5.4 |  |  | Cn1c(Nc2nc3cc(OC(F)(F)F)ccc3[nH]2)nc2cc(C(=O)O)ccc21 [Example 13, 1-methyl-2-((5-(trifluoromethoxy)-1H-benzo[d]imidazol-2-yl)amino)-1H-benzo[d]imidazole-5-carboxylic acid] | 34 |

The remaining lines, values behind:

| SMILES | EC50 [1, 3] [nM] | EC50 [1, 4] [nM] | concentration at 3 h [2] [µM] | concentration at 6 h [2] [µM] | Kd (Human BACH1) [nM] | solubility at 16 h (Kinetic solubility) [µM] | inhibition at 10 µM (hERG channel) [%] |
| --- | --- | --- | --- | --- | --- | --- | --- |
| COCCNC(=O)c1ccc2c(c1)nc(Nc1nc3ncccc3o1)n2C [Example 112, N-(2-methoxyethyl)-1-methyl-2-(oxazolo[4,5-b]pyridin-2-ylamino)-1H-benzo[d]imidazole-5-carboxamide] |  |  |  |  | 560 |  |  |
| Cl.Cn1c(Nc2nc3ccccc3o2)nc2cc(C(=O)NCCN)ccc21 [Example 18, N-(2-aminoethyl)-2-(benzo[d]oxazol-2-ylamino)-1-methyl-1H-benzo[d]imidazole-5-carboxamide hydrochloride] |  | 700 |  |  |  | 12.4 | 12 |
| COCCn1c(Nc2nc3cc(OC(F)(F)F)ccc3[nH]2)nc2cc(C(=O)O)ccc21 [Example 75, 1-(2-methoxyethyl)-2-((5-(trifluoromethoxy)-1H-benzo[d]imidazol-2-yl)amino)-1H-benzo[d]imidazole-5-carboxylic acid] |  | 370 |  |  |  | 11.6 (≈ 5.05 µg/mL) | 9 |
| Cn1c(Nc2nc3ccc(C(F)(F)F)cc3o2)nc2cc(C(=O)NCCOCCO)ccc21 [Example 34] |  | 800 |  |  |  | 8 (≈ 3.71 µg/mL) | 61 |
| COCCOc1ccc2nc(Nc3nc4cc(C(=O)NCCOCCO)ccc4n3C)oc2c1 [Example 58, N-(2-(2-hydroxyethoxy)ethyl)-2-((6-(2-methoxyethoxy)benzo[d]oxazol-2-yl)amino)-1-methyl-1H-benzo[d]imidazole-5-carboxamide] |  | 1700 |  |  |  | 7.7 (≈ 3.62 µg/mL) | 11 |
